Assay [1] deals with CRM1/Exportin1-mediated nuclear export of XPC-GFP. Briefly: Heterokaryon nuclear-cytoplasmic shuttling assay (DKO cells expressing XPC-GFP/hHR23B fused to HeLa cells). It counts as cell-based, mouse/human heterokaryon. Particulars: LMB 10 ng/ml directly after cell fusion; XPC-GFP induced by 10 J/m^2 UV-C 6 hr prior to fusion; 4 hr after fusion. The method, then:
The shuttling assay using heterokaryons was performed as described (Borer et al., 1989). One day before cell fusion, DKO cells stably expressing hXCPC-GFP/hHR23B and HeLa cells were seeded in a 1:1 ratio on coverslips. Six hours prior to fusion, cells were irradiated with 10 J/m^2 UV-C or treated with 10 μM CBZ-LLL. Cell-fusion was induced (after washing with PBS) by treatment with 50% polyethylene glycol 6,000 in HANKS™ (Gibco) for 2 min followed by (3×) washing with PBS. Finally, cells were cultured in fresh medium either supplemented with or without leptomycin B (LMB, final concentration 10 ng/ml). Three to five hours after fusion, cells were fixed with 2% paraformaldehyde and immunostained with rat monoclonal anti-HA (to monitor the XPC-GFP-His6HA protein) and rabbit polyclonal anti-human ERCC1 (to distinguish human nuclei from mouse nuclei, since it specifically recognizes human ERCC1) and subsequently with appropriate secondary antibodies (see above).

The test system of assay [2] is DKO cells expressing hXPC-GFP/hHR23B. The experiment in a line: XPC-GFP accumulation in living DKO cells expressing hXPC-GFP/hHR23B after exposure to agents (fluorescence microscopy). The format is cell-based, mouse. The method, then: Cells stably expressing hXPC-GFP/hHR23B were rinsed with PBS, exposed to UV-C light (254 nm; Philips TUV lamp, dose as indicated in the text) and subsequently cultured at 37° C. for various time periods (as indicated in the text). XPC was detected either by immunoblot analysis or by visualization in living cells using fluorescence microscopy. A similar approach was used to study the effect of N-acetoxy-2-acetylaminofluorene (NA-AAF, final concentration 50 or 100 μM), mitomycin C (MMC, Sigma, final concentration 1.2 or 2.4 μg/ml), ionizing radiation (γ-rays from a ^137Cs source, single dose of 6 and 10 Gy), the proteasome inhibitor N-CBZ-LEU-LEU-LEU-AL (CBZ-LLL, Sigma, final concentration 5 or 10 μM), the transcription inhibitor 5,6-dichloro-1β-D-ribofuranosyl-benzimidazole (DRB, Sigma, final concentration of 100 μM, 2-3 hrs), the translation inhibitor cyclohexamide (CHX, Boehringer, final concentration 30, 50, and 100 μg/ml, 1-3 hours), heat shock (39.5 and 41° C., for 2-12 hrs), and the nuclear export inhibitor leptomycin B (LMB, Sigma, final concentration 10 ng/ml).
Immunofluorescent microscopy images were obtained with either a Leitz Aristoplan microscope equipped with epifluorescene optics and a PlanApo 63×/1.40 oil immersion lens or a Leica DMRBE microscope equipped with epifluorescene optics and a PL Fluotar 100×/1.30 oil immersion lens. For the detection of GFP-tagged proteins in the living cell, an Olympus IX70 microscope equipped with epifluorescence optics and Olympus PlanApo 60×/1.40 oil immersion lens was used. GFP images were obtained after excitation with 455-490 and long pass emission filter (>510 nm). Cy-3 images were obtained after excitation with 515-560 and long pass emission filter (580 nm).

Where a SMILES comes first, the peptide text is derived from it. The star is where a group is joined. Cbz = O=C(OCc1ccccc1)*

Regarding `CCC(=C/[C@H](C)C/C=C/C(C)=C/[C@@H](C)C(=O)[C@@H](C)[C@H](O)[C@@H](C)C/C(C)=C/C(=O)O)/C=C/[C@@H]1OC(=O)C=C[C@@H]1C` [LMB, leptomycin B], the “exchange of nuclear XPC-GFP from mouse (DKO) nuclei to human (HeLa) nuclei” value in assay [1] is given as “prevented this exchange”.
Regarding `CC(C)C[C@@H](C=O)NC(=O)[C@H](CC(C)C)NC(=O)[C@H](CC(C)C)NC(=O)OCc1ccccc1` [CBZ-LLL, N-CBZ-LEU-LEU-LEU-AL] (Cbz-Leu-Leu-Leu-aldehyde), the “reversibility of XPC-GFP accumulation” value in assay [2] (CBZ-LLL 5 and 10 μM, after drug removal (not shown)) is “reversible upon drug removal”. Besides, in assay [2] (CBZ-LLL 5 and 10 μM, confirmed by immunoblot and anti-HA immunocytochemistry), the XPC-GFP accumulation result is given as “all cells displayed a striking XPC-GFP accumulation in time”.
`CC(=O)ON(C(C)=O)c1ccc2c(c1)Cc1ccccc1-2` [NA-AAF, N-acetoxy-2-acetylaminofluorene]: the “XPC accumulation (hXPC-GFP fluorescence)” value in assay [2] (NA-AAF 50 and 100 μM, within 6 to 8 hrs) is listed as “very potent UV-like response in all cells”.
Regarding `OC[C@H]1O[C@@H](n2cnc3cc(Cl)c(Cl)cc32)[C@H](O)[C@@H]1O` [DRB, 5,6-dichloro-1β-D-ribofuranosyl-benzimidazole], the “induction of XPC-GFP fluorescence” value in assay [2] (DRB 100 μM alone, no DNA damage) is reported as “No induction of XPC-GFP fluorescence was observed”. The “UV-induced XPC-GFP accumulation” value in assay [2] (preincubation with DRB (2-3 hrs) prior to UV treatment, data not shown) was “prevented UV-induced XPC-GFP accumulation”.
In the case of `CO[C@@]12[C@H](COC(N)=O)C3=C(C(=O)C(C)=C(N)C3=O)N1C[C@@H]1N[C@@H]12` [MMC, mitomycin C], in assay [2] (MMC 1.2 and 2.4 μg/ml), the “XPC accumulation (hXPC-GFP fluorescence)” value is given as “failed to provoke detectable XPC accumulation”.
Take `C[C@@H]1C[C@@H]([C@H](O)CC2CC(=O)NC(=O)C2)C(=O)[C@@H](C)C1` [cyclohexamide]: the XPC fluorescence entry in assay [2] (cyclohexamide 30 and 50 μg/ml) is on record as “no enhanced XPC fluorescence was found”.

(Values after patent US7820374B2, “Detection methods based on HR23 protein binding molecules” (Erasmus Universiteit Rotterdam, priority 2001, dated 2010).)
